Read-outs that look alike come from different tables or passages of the source.
Legend:
[1] = tested on: Notch-dependent expression of ATOH1 in LS174T cells; test: ATOH1 expression induction in LS174T cell line by GSIs (RT-PCR); format: cell-based, human; conditions: GSI treatment 72 h, fold-change vs 0.05% DMSO, read-out: IC50 for ATOH1 expression upregulation
Protocol: The human colon cancer cell line LS174T (CL-188; ATCC) was cultured without antibiotics in 1% FBS/Eagle’s Minimum Essential Medium (MEM; Thermo Fisher) ([Asakura et al., 2018]). […]
(§1) Cells or tissue were lysed using RLT Lysis Buffer (Qiagen) and high purity RNA was prepared on the MagNA Pure instrument using MagNA Pure 96 Cellular RNA LV Kit (Roche). Reagents from Thermo Fisher were used for cDNA synthesis by reverse transcription using random hexamers. Resulting cDNA was RNAse H treated and amplified by TaqMan GEX mastermix and PCR primers and probes for human ATOH1 (Hs00944192_s1) and TBP (Hs00427620_m1), mouse Tbp (Mm00446971_m1), Atoh1 (Mm00476035_s1), Hes5 (Mm00439311_g1), Pouf4s (Mm04213795_s1), and Myo7a (Mm01274015_m1) on the Applied Biosystems QuantStudio 7 Flex Real-Time PCR System. Normalized to Tbp, relative gene expression fold-change was quantified and compared between experimental and control conditions by ΔΔCt calculation.
Statistical analysis was performed with GraphPad Prism software (Prism9; GraphPad Software Inc., San Diego, CA, United States). For explant cultures, when the number of explants/replicates was not sufficient to test for Gaussian distribution normal distribution of the data was assumed based on previous experiments ([Perny et al., 2017]; [Erni et al., 2019]). Alternatively, the distribution of the datasets was tested by D’Agostino and Pearson normality test. Unpaired t-tests were used to compare parametric data sets of two groups. Welch’s correction was applied if variances were not equal. For non-parametric data, the Mann–Whitney test was adopted. One-way ANOVA was used to determine the difference in means among multiple groups and multiple comparison correction was tested. Graphs indicate the single data point, the mean values ± standard deviation. IC50s were calculated by non-linear regression of data normalized by percent change from controls to compare multiple experiments. Differences in IC50s from Best fit data were compared by Least Squares (F-test; Extra sum of squares; alpha = 0.05).
To measure the relative potency between different GSIs, a pharmacological assay was initially used to identify the dose ranges effective to induce ATOH1 expression. The cell line LS174T, a human colorectal adenocarcinoma, was used to evaluate Notch-dependent expression of ATOH1 ([Kazanjian et al., 2010]). Two compounds from Eli Lilly, designated LY3056480 (CPD3) and LY3056359 (CPD8) (Figures 1A,B) were compared with the commercially available GSIs LY411575 and DAPT. […] The intermediate potency of CPD3 and 8 was likely to be adequate to achieve levels above the IC50 after dilution into perilymph in the inner ear.

[2] = tested on: hair cell genes Atoh1, Pou4f3, Myo7a in OC explants; test: Hair cell gene expression in organ of Corti explants (RT-PCR); format: cell-based, mouse; conditions: 4 days, vs DMSO
Protocol: OC explants were isolated from postnatal day 2 (P2) Wistar rats, P0-P2 mice (Lgr5-GFP or Atoh1-nGFP mice). Dissection of the cochlea under a stereomicroscope (Nikon SMZ800, Japan) allowed OC separation from stria vascularis and modiolus, and the sensory epithelium was plated with hair cells facing up on Cell-Tak (Corning, United States)-coated transwell-clear inserts (6-well format, 0.4 μm pore, Corning, United States). Dissection medium was exchanged for 1.5 ml full otic medium supplemented with 10% FBS (Invitrogen) and 0.01% Ampicillin (Sigma), added under the insert membrane, maintaining the OC under a thin film of medium during culture at 37°C. 5-ethyl-2′-deoxyuridine (EdU, 5 μM, Life Technologies) was added directly in the medium when indicated.
Concentrations of small molecule GSIs {LY411575, CPD3, CPD8, DAPT (N-[N-(3,5-Difluorophenacetyl)-L-alanyl]-S-phenylglycine t-butyl ester; Sigma)} were prepared in DMSO and are indicated in Figure Legends and Results. DMSO included as Control. Treatment groups were assigned randomly.
as §1
FIGURE 2 GSI-mediated induction of hair cell gene expression and de novo generation of hair cells in the neonatal cochlear sensory epithelium. (A) Gene expression changes of Atoh1, Pou4f3, and Myo7a in response to Notch pathway inhibition by CPD3 (solid lines, triangles) and CPD8 (dashed lines, open square) in otic spheres. Gene expression is reported as fold-change relative to carrier control-treated (DMSO, 0.05%). (n = 9–12). […] (B) Gene expression analysis for the hair cell genes Atoh-1, Myo7a, and Pou4f3. DMSO control n = 13, CPD3 n = 12, LY411575 n = 9, DAPT n = 6 from 2–4 independent experiments. OC explants were cultured for 4 days with/without GSI prior to lysis and analysis. One-way ANOVA with Dunnett’s multiple comparison test, each condition compared to DMSO control. (*p < 0.05, **p < 0.005, ***p < 0.001). (C) Cell counts of Atoh1 positive HCs (OHC left, IHC right) in the mouse cochlear sensory epithelium in the mid-apex region after 7 days in culture with different γ-secretase inhibitors. One-way ANOVA Dunnett’s multiple comparison test, each condition compared to DMSO control. (*p < 0.05; n = 3–5 independent experiments). (D) Quantification of Pou4f3 positive HCs (OHC left, IHC right) in the cochlear sensory epithelium from P2 rats in the apical domain after 8 days in culture with different γ-secretase inhibitors. One-way ANOVA with Dunnett’s multiple comparison test, each condition compared to DMSO control (*p < 0.05, n = 3). Representative immunohistological images of the apical domain after 8 days incubation (inset). scale bar = 20 μm. (E) Quantification of Pou4f3 positive OHCs in the apex, middle and basal domain of organ of Corti explants from rats after 4 days of CPD3 treatment compared to DMSO (*p < 0.05, unpaired t-test) n = 4–6 explants from 2 independent experiments.

| Structure (SMILES) | IC50 ([1]; Homo sapiens) [nM] | Atoh1 expression ([2]; 1 μM) [fold] | Myo7a expression ([2]; 1 μM) [fold] | Pou4f3 expression ([2]; 1 μM) [fold] | IC50 [1] [nM] | Atoh1 expression ([2]; 5 μM) [fold] | Myo7a expression ([2]; 5 μM) [fold] | Pou4f3 expression ([2]; 5 μM) [fold] |
| --- | --- | --- | --- | --- | --- | --- | --- | --- |
| COc1ccc2c(c1)N1CCC(C)(C)C1=CC(=O)[C@H]2NC(=O)[C@H](C)NC(=O)CCC(F)(F)F [CPD3] | 17.3 | 3.7 ± 0.54 | 1.73 ± 0.33 | 2.04 ± 0.35 | – | – | – | – |
| C[C@H](NC(=O)[C@@H](O)c1cc(F)cc(F)c1)C(=O)N[C@@H]1C(=O)N(C)c2ccccc2-c2ccccc21 [LY411575] | – | – | – | – | 0.4 | 4.34 ± 0.82 | 1.42 ± 0.31 | 1.46 ± 0.26 |
